Assay results taken from patent EP0386657A1, “Preparation for treating systemic lupus erythematosus” (MECT CORPORATION, priority 1989, dated 1990).
Like-named read-outs stand apart in the source and are kept apart here.

Tests used:
[1] = simple acute toxicity test, intravenous injection to mouse; type: in vivo, ddy male mouse; details: mouse, in vivo, observed 7 days, 3 mice, read-out: Final death rate (converted)
Description: (§1) Simple acute toxicity test of the agent to be tested due to intravenous injection to mouse was effected as shown below.
(§2) • (1) Agents to be tested Lithium salt, potassium salt, barium salt and magnesium salt of N-acetylneuraminic acid (all available from MECT Corporation) were used. • (2) Animal for experiment ddy male mouse Weight at initial of the test : 17.7 to 21.1 g Animal number per one level : 3 • (3) Room temperature : 23 ± 1 °C, Humidity : 55 ± 7 % • (4) Administration route : intravenous • (5) Administration method and amount thereof The above agent to be tested was dissolved with a physiological saline solution, and that which is prepared so as to become the administration amount of 0.2 ml per 20 g of mouse weight was injected into a tail vein. An administered amount was made to three levels of 500, 1000 and 2000 mg/kg. • (6) Observation of general condition and death condition Observations of the general condition and presence or absence of death were conducted from immediately after administration to after 7 days.

[2] = tested on: ICR mouse; test: acute toxicity test, mouse; type: in vivo; details: female, 14 days observed
Excerpt: (§3) Acute toxicity tests of sodium N-acetylneuraminate against mouse, rat and guinea pig due to oral, subcutaneous injection, intraperitoneal injection, intravenous injection and inhalation were effected as shown below. • (1) Animals to be tested ICR mouse 6 weeks old SD rat 6 weeks old Hartley guinea pig 6 weeks old • (2) Chemicals concentration 20 % (w/v) dissolved in distilled water • (3) Animal number per one level Ten • (4) Terms observed 14 days • (5) Calculation method of LD₅₀ Probit method

[3] = acute toxicity test, mouse; type: in vivo; details: in vivo, male, 14 days observed, read-out: LD₅₀
Excerpt: as §3

[4] = tested on: SD rat; test: acute toxicity test, rat; type: in vivo
Excerpt: as §3
(§4) Inhalation is effected by exposing powder to be tested for one hour.

[5] = acute toxicity test, rat; type: in vivo; details: in vivo, male, 14 days observed, read-out: LD₅₀
Excerpt: as §3, §4

[6] = tested on: passive Arthus reaction; test: passive Arthus reaction (bleeding of skin); type: in vivo, Male Hartley guinea pig
Description: Male Hartley guinea pig weighing 300 to 400 g was used.
According to the conventional method, Anti-OA (rabbit) was prepared. That is, by using New Zealand strain rabbits having a weight of 2.0 to 2.2 kg, 1 ml of an emulsion comprising 20 mg of OA and Freund complete adjuvant (available from DIFCO LABORATORIES) was subcutaneously injected to back side portion and active sensitization was effected for total 4 times for every two weeks.
After two weeks from the final sensitizing date, blood was gathered from common carotid artery and after separation of antiserum, it was stored under freezing at -20°C by the usage for experiment.
The passive Arthus reaction was effected according to the method of Katayama et al. [S. Katayama, et al., Arzneim.-Forsh., vol. 31, p. […] However, in order to cause sufficient reaction, change were added to a cocentration of OA solution. That is, sensitization was effected by intravenously injecting 1 ml of antiserum stock solution and 30 minutes after, the reaction was caused by intradermally injecting respective 0.05 ml of OA solutions, each containing 0.025 mg and 0.05 mg of OA respectively, to each one portion of an abdominal part and total two portions of guinea pig at which hair was cut at the day before. At this time, a physiological saline solution was intradermal injected simultaneously in the same manner as a blank. […] And, the value was calibrated by the blank to be made as the experimental results.
1, 5 or 20 mg/kg of sodium N-acetylneuraminate, or physiological saline solution (1 mg/kg) as a control was intravenously injected before 30 minutes of antigen-challenge or immediately after sensitization.
Also, Student's t-test was employed for significant test and p < 0.05 was made as statistically significant.

[7] = acute toxicity test, guinea pig; details: in vivo, iv, 14 days observed, read-out: LD₅₀
Excerpt: as §3

[8] = tested on: ddy male mouse; test: simple acute toxicity test, intravenous injection to mouse; type: in vivo; details: 3 mice; for Final death rate: observed 7 days
Description: as §1, §2

CC(=O)NC1C(O)CC(O)(C(=O)O)OC1C(O)C(O)CO (stereo not shown) [Barium N-acetylneuraminate]
mortality at 168 h ([1]; 500 mg/kg intravenous): 100%

CC(=O)N[C@H]1[C@H]([C@H](O)[C@H](O)CO)OC(O)(C(=O)[O-])C[C@@H]1O.[Na+] (stereo partly shown)
LD₅₀ ([2]; i.p.): >5,000 mg/kg | LD₅₀ ([2]; i.v.): >5,000 mg/kg | LD₅₀ ([2]; p.o.): >5,000 mg/kg | LD₅₀ ([2]; s.c.): >5,000 mg/kg | LD50 at 336 h ([3]; ip, i.p.): > 5000 mg/kg | LD50 at 336 h ([3]; iv, i.v.): > 5000 mg/kg | LD50 at 336 h ([3]; po, p.o.): > 5000 mg/kg | LD50 at 336 h ([3]; sc, s.c.): > 5000 mg/kg | LD₅₀ ([4]; female, i.p., 14 days observed): >5,000 mg/kg | LD₅₀ ([4]; female, i.v., 14 days observed): >5,000 mg/kg | LD₅₀ ([4]; female, inhalation, powder exposure for one hour): >4,000 mg/m³ | LD₅₀ ([4]; female, p.o., 14 days observed): >5,000 mg/kg | LD₅₀ ([4]; female, s.c., 14 days observed): >5,000 mg/kg | LD₅₀ ([4]; male, inhalation, powder exposure for one hour): >4,000 mg/m³ | LD50 at 336 h ([5]; ip, i.p.): > 5000 mg/kg | LD50 at 336 h ([5]; iv, i.v.): > 5000 mg/kg | LD50 at 336 h ([5]; po, p.o.): > 5000 mg/kg | LD50 at 336 h ([5]; sc, s.c.): > 5000 mg/kg | bleeding of skin ([6]; 20 mg/kg intravenously, guinea pig): remarkable | bleeding of skin ([6]; 1, 5 or 20 mg/kg intravenously, 30 minutes before antigen challenge, guinea pig, Fig. 1 and Fig. 2): depressed depending on an amount to be used | inhibiting effect on bleeding of skin ([6]; 24 hours after antigen challenge, guinea pig): continued even after 24 hours from antigen challenge | LD50 at 336 h [7]: > 5000 mg/kg

CC(=O)N[C@H]1[C@H]([C@H](O)[C@H](O)CO)OC(O)(C(=O)[O-])C[C@@H]1O.[K+] (stereo partly shown) [Potassium N-acetylneuraminate]
Died number with a lapse of time ([8]; 500 mg/kg intravenous, 1 hrs): 0 | Died number with a lapse of time ([8]; 500 mg/kg intravenous, 3 hrs): 0 | Died number with a lapse of time ([8]; 500 mg/kg intravenous, 6 hrs): 0 | Died number with a lapse of time ([8]; 500 mg/kg intravenous, 24 hrs): 0 | Died number with a lapse of time ([8]; 500 mg/kg intravenous, 2 days): 0 | Died number with a lapse of time ([8]; 500 mg/kg intravenous, 3 days): 0 | Died number with a lapse of time ([8]; 500 mg/kg intravenous, 4 days): 0 | Died number with a lapse of time ([8]; 500 mg/kg intravenous, 5 days): 0 | Died number with a lapse of time ([8]; 500 mg/kg intravenous, 6 days): 0 | Died number with a lapse of time ([8]; 500 mg/kg intravenous, 7 days): 0 | Final death rate ([8]; 500 mg/kg intravenous): 0/3 | Died number with a lapse of time ([8]; 1000 mg/kg intravenous, 1 hrs): 3 | Died number with a lapse of time ([8]; 1000 mg/kg intravenous, 3 hrs): 0 | Died number with a lapse of time ([8]; 1000 mg/kg intravenous, 6 hrs): 0 | Died number with a lapse of time ([8]; 1000 mg/kg intravenous, 24 hrs): 0 | Died number with a lapse of time ([8]; 1000 mg/kg intravenous, 2 days): 0 | Died number with a lapse of time ([8]; 1000 mg/kg intravenous, 3 days): 0 | Died number with a lapse of time ([8]; 1000 mg/kg intravenous, 4 days): 0 | Died number with a lapse of time ([8]; 1000 mg/kg intravenous, 5 days): 0 | Died number with a lapse of time ([8]; 1000 mg/kg intravenous, 6 days): 0 | Died number with a lapse of time ([8]; 1000 mg/kg intravenous, 7 days): 0 | Final death rate ([8]; 1000 mg/kg intravenous): 3/3 | Died number with a lapse of time ([8]; 2000 mg/kg intravenous, 1 hrs): 3 | Died number with a lapse of time ([8]; 2000 mg/kg intravenous, 3 hrs): 0 | Died number with a lapse of time ([8]; 2000 mg/kg intravenous, 6 hrs): 0 | Died number with a lapse of time ([8]; 2000 mg/kg intravenous, 24 hrs): 0 | Died number with a lapse of time ([8]; 2000 mg/kg intravenous, 2 days): 0 | Died number with a lapse of time ([8]; 2000 mg/kg intravenous, 3 days): 0 | Died number with a lapse of time ([8]; 2000 mg/kg intravenous, 4 days): 0 | Died number with a lapse of time ([8]; 2000 mg/kg intravenous, 5 days): 0 | Died number with a lapse of time ([8]; 2000 mg/kg intravenous, 6 days): 0 | Died number with a lapse of time ([8]; 2000 mg/kg intravenous, 7 days): 0 | Final death rate ([8]; 2000 mg/kg intravenous): 3/3 | mortality at 168 h ([1]; 1000 mg/kg intravenous): 100% | mortality at 168 h ([1]; 2000 mg/kg intravenous): 100%

CC(=O)N[C@H]1[C@H]([C@H](O)[C@H](O)CO)OC(O)(C(=O)O)C[C@@H]1O (stereo partly shown) [N-acetylneuraminic acid]
inhibiting effect to Arthus reaction ([6]; general statement, in vivo): has inhibiting effect to Arthus reaction

CC(=O)N[C@H]1[C@H]([C@H](O)[C@H](O)CO)OC(O)(C(=O)[O-])C[C@@H]1O.[Li+] (stereo partly shown) [Lithium N-acetylneuraminate]
Died number with a lapse of time ([8]; 500 mg/kg intravenous, 1 hrs): 0 | Died number with a lapse of time ([8]; 500 mg/kg intravenous, 3 hrs): 0 | Died number with a lapse of time ([8]; 500 mg/kg intravenous, 6 hrs): 0 | Died number with a lapse of time ([8]; 500 mg/kg intravenous, 24 hrs): 0 | Died number with a lapse of time ([8]; 500 mg/kg intravenous, 2 days): 0 | Died number with a lapse of time ([8]; 500 mg/kg intravenous, 3 days): 0 | Died number with a lapse of time ([8]; 500 mg/kg intravenous, 4 days): 0 | Died number with a lapse of time ([8]; 500 mg/kg intravenous, 5 days): 0 | Died number with a lapse of time ([8]; 500 mg/kg intravenous, 6 days): 0 | Died number with a lapse of time ([8]; 500 mg/kg intravenous, 7 days): 0 | Final death rate ([8]; 500 mg/kg intravenous): 0/3 | Died number with a lapse of time ([8]; 1000 mg/kg intravenous, 1 hrs): 0 | Died number with a lapse of time ([8]; 1000 mg/kg intravenous, 3 hrs): 0 | Died number with a lapse of time ([8]; 1000 mg/kg intravenous, 6 hrs): 0 | Died number with a lapse of time ([8]; 1000 mg/kg intravenous, 24 hrs): 0 | Died number with a lapse of time ([8]; 1000 mg/kg intravenous, 2 days): 0 | Died number with a lapse of time ([8]; 1000 mg/kg intravenous, 3 days): 0 | Died number with a lapse of time ([8]; 1000 mg/kg intravenous, 4 days): 0 | Died number with a lapse of time ([8]; 1000 mg/kg intravenous, 5 days): 0 | Died number with a lapse of time ([8]; 1000 mg/kg intravenous, 6 days): 0 | Died number with a lapse of time ([8]; 1000 mg/kg intravenous, 7 days): 0 | Final death rate ([8]; 1000 mg/kg intravenous): 0/3 | Died number with a lapse of time ([8]; 2000 mg/kg intravenous, 1 hrs): 0 | Died number with a lapse of time ([8]; 2000 mg/kg intravenous, 3 hrs): 0 | Died number with a lapse of time ([8]; 2000 mg/kg intravenous, 6 hrs): 0 | Died number with a lapse of time ([8]; 2000 mg/kg intravenous, 24 hrs): 0 | Died number with a lapse of time ([8]; 2000 mg/kg intravenous, 2 days): 0 | Died number with a lapse of time ([8]; 2000 mg/kg intravenous, 3 days): 0 | Died number with a lapse of time ([8]; 2000 mg/kg intravenous, 4 days): 0 | Died number with a lapse of time ([8]; 2000 mg/kg intravenous, 5 days): 0 | Died number with a lapse of time ([8]; 2000 mg/kg intravenous, 6 days): 0 | Died number with a lapse of time ([8]; 2000 mg/kg intravenous, 7 days): 0 | Final death rate ([8]; 2000 mg/kg intravenous): 0/3

CC(=O)NC1C(O)CC(O)(C(=O)O)OC1C(O)C(O)CO (stereo not shown) [Magnesium N-acetylneuraminate]
mortality at 168 h ([1]; 1000 mg/kg intravenous): 100% | mortality at 168 h ([1]; 2000 mg/kg intravenous): 100%
